# According to patent US20210348086A1, “COMPOSITION” (Conopco Inc., d/b/a UNILEVER, priority 2018, published 2021):
# Test system: bacterial pool: Burkholderia cepacia, Pseudomonas aeruginosa, Psuedomonas putida, Acinetobacter lwoffii
# Test: Modified preservative challenge test (Ph. Eur. 5.1.3) in laundry liquid, Total Viable Count pour plate
# Assay type: cell-based
# Details: for Preservation of a laundry liquid composition (result in words): summary of the challenge test data set
# Procedure: A modified challenge that complies with the current European Pharmacopoeia (Ph. Eur. Or EP) 5.1.3 criteria was performed on a subsample of both the unpreserved and each dosed product. The bacterial pool was added to each sample container at a ratio of 1:100. The final concentration of inoculum in the product should be between 5×10^5 and 5×10^6 CFU/G of test product. Each product is mixed with a sterile spatula to ensure a homogenous distribution of the inocula throughout the product. [table] Both the inoculum level and the level of microorganism within each sample was quantified using a Total Viable Count (TVC) pour plate method at 7, 14, 21 and 28 days. A 1:10 dilution was made with a subsample of each product, performed separately in Peptone (0.1%)/tween 80 (2%) neutralising agent. A 1:10 and 1:100 dilution of each subsample was performed and pour plates produced at each dilution using tryptone soya agar. Plates were incubated at 28° C. for 48 hours and then examined for growth. Visible colonies were counted with the aid of a Quebec Colony Counter and recorded for analysis against the challenge test criteria. During the removal of a subsample of product for TVC, a re-inoculation is performed at 7 and 14 days, reintroducing 5×10^6 CFU/G of bacteria before mixing using a sterile spatula to homogenise the re-inoculation.
# [1] = 0.5% in Example 1 laundry liquid, 7 days
# [2] = 0.5% in Example 1 laundry liquid, 14 days, re-inoculated at 7 days
# [3] = 0.5% in Example 1 laundry liquid, 21 days, re-inoculated at 7 and 14 days
# [4] = 0.5% in Example 1 laundry liquid, 28 days, re-inoculated at 7 and 14 days
# [5] = 1.0% in Example 1 laundry liquid, 7 days
# [6] = 1.0% in Example 1 laundry liquid, 14 days, re-inoculated at 7 days
# [7] = 1.0% in Example 1 laundry liquid, 21 days, re-inoculated at 7 and 14 days
# [8] = 1.0% in Example 1 laundry liquid, 28 days, re-inoculated at 7 and 14 days
Compound,Microbial Log reduction [1],Microbial Log reduction [2],Microbial Log reduction [3],Microbial Log reduction [4],Microbial Log reduction [5],Microbial Log reduction [6],Microbial Log reduction [7],Microbial Log reduction [8],Preservation of a laundry liquid composition (result in words)
O=C(O)CC(O)(CC(=O)O)C(=O)O [Citric acid],>5.59,<2.54,<2.56,<2.56,>5.59,>5.54,>5.56,>5.56,not capable of effectively preserving a laundry liquid composition
C=C(CC(=O)O)C(=O)O [Itaconic acid],>5.59,>5.54,>5.56,>5.56,>5.59,>5.54,>5.56,>5.56,effective preservative
CC(O)C(=O)O (stereo not drawn) [Lactic acid],>5.59,2.32,<2.56,<2.56,>5.59,>5.54,>5.56,>5.56,not capable of effectively preserving a laundry liquid composition
